One test has as its system LOX IMVI. Particulars: single dose (10 μM).
Another test deals with MOLT-4. Conditions: single dose (10 μM).
A further test deals with UO-31. Conditions: single dose (10 μM).
For another test, the system named is HOP-92. Particulars: single dose (10 μM).
Another test relates to RXF 393. Particulars: RXF393; single dose (10 μM).

The source of these data is patent US20100152434A1, “Protein Kinase-binding Nucleosides and Associated Methods” (priority 2007, published 2010).

Molecules are shown by their SMILES.

As for `CNC(=O)NC[C@H]1O[C@@H](n2cnc3c(NC(=O)Nc4ccccc4)ncnc32)C2OC(=O)C[C@H]21` (some centres unmarked) [Compound 33, 3′-(Carboxymethyl)-3′,5′-dideoxy-5′-[(N-methylcarbamoyl)amino]-N^6-(N-phenylcarbamoyl)adenosine-2′,3′-lactone], the “anticancer activity (GI)” value is “potent and selective anticancer activities” with LOX IMVI; “potent and selective anticancer activities” in the test with MOLT-4; “potent and selective anticancer activities” with UO-31; “potent and selective anticancer activities” with HOP-92; “potent and selective anticancer activities” in the test with RXF 393.
